Measurements reported in patent US12396985B2, “Composition for oral administration with controlled release properties comprising complex of clay minerals, method for preparing same, and method for controlling release properties” (Korea Institute of Geoscience and Mineral Resources, priority 2019, dated 2025).
Converted amounts (≈) assume the structure as drawn.

Legend:
[1] = aqueous solubility of the compound of Chemical Formula 1; assay type: physicochemical
[2] = partition coefficient (octanol/water); assay type: physicochemical
[3] = adsorption rate of vactosertib onto bentonite; assay type: physicochemical
Method: The adsorption rates of vactosertib and bentonite according to the pH of a solvent were evaluated. At this time, considering that the vactosertib was not dissolved in neutral, but stated to be dissolved in about 1 mg/mL from pH 3, a test was performed by setting a reaction pH to pH 1, pH 2, and pH 3. First, 10 mg/mL of the vactosertib was dissolved in a 0.1 N hydrochloric acid aqueous solution and diluted with a hydrochloric acid aqueous solution or a phosphate buffer solution (pH 1: 0.1 N hydrochloric acid aqueous solution, pH 2, pH 3: phosphate buffer solution) corresponding to each pH to adjust the concentration to 1 mg/mL. 1 mL of a corresponding drug solution, 8 mL of a reaction solution (that is, 0.1 N hydrochloric acid aqueous solution or phosphate buffer solution) corresponding to each pH, and 1 mL of a 5 mg/mL suspension in which bentonite was suspended in distilled water were mixed and left for 30 minutes to adsorb the drug onto the bentonite. Thereafter, a drug concentration of a supernatant obtained by centrifugation (3,000 rpm, 5 minutes) was analyzed. Through this, the drug amount adsorbed onto the bentonite was indirectly calculated as shown in Equation 1 by removing the remaining drug amount in the supernatant from the entirely applied drug (vactosertib) to calculate an adsorption rate. [formula] [formula] To this end, a sample was prepared in the same manner as in Test Example 1, and a complex was prepared by fixing a reaction concentration and a reaction pH of bentonite to 0.5 mg/mL and pH 1, respectively, and varying the concentration of the applied vactosertib from 0.01 mg/mL to 0.5 mg/mL. In addition, a difference in adsorption rate according to the concentration of vactosertib was measured. To this end, a sample was prepared in the same manner as in Test Example 1, and a complex was prepared by using a solvent of pH 1, setting a concentration ratio of vactosertib and bentonite to 1:5, and varying an absolute concentration (that is, actual concentration). In addition, a difference in adsorption rate according to an absolute concentration was measured.

[4] = test system: ulcerative colitis mouse model induced with DSS; assay: histopathological severity scores in ulcerative colitis mouse model induced with DSS; assay type: in vivo, C57BL/6 mice
Method: Animal tests were performed to confirm anti-inflammatory, anti-crypt cell damage, anti-ulcer, anti-edema, and anti-fibrosis effects of a vactosertib/bentonite complex using a mouse model of ulcerative colitis as one of inflammatory bowel diseases. C57BL/6 mice were selected as test animals, and in order to induce ulcerative colitis, a cycle in which an inflammation inducing substance, DSS was added in drinking water and supplied for 7 days, and then normal drinking water was supplied for 14 days was repeated. Such an inflammation inducing cycle was repeated 3 times to induce chronic inflammation, ulcer and fibrous conditions in the large intestine. To test animal groups except for control groups, from 3 weeks after a first inflammation inducing cycle was elapsed, bentonite, vactosertib, or a vactosertib/bentonite complex was administered twice a day (10 am, 4 pm), 5 days a week, and for total 6 weeks. The bentonite per 1 kg of converted mouse weight was administered with 106.8 mg, the vactosertib was administered with 20.0 mg, and the complex was administered with 126.8 mg. At this time, as the vactosertib/bentonite complex, the complex prepared in Test Example 5 was used. For each test group used in ulcerative colitis animal tests, inflammation inducing substances, test substances, doses of the test substances, and the number of test animals were shown in Table 7 below.
C57BL/6 mice used in the test were supplied from the Orient Bio Gapyeong Center (699-13, Mokdong-ri, Buk-yeon, Gapyeong-gun, Gyeonggi-do), and about 6-week-old during obtaining. For about 7 days after obtaining, the rats were quarantined and purified and then healthy animals were used for the test. When the induced material was administered, the test animals were about 8-week-old, and 52 mice were used. The test animals were bred in the 2nd floor of Clean Animal Room, Bioscience Research Institute, Research Institute of Medical Science at Inha University, and circulated in at least 10 times/hour and bred under conditions of a temperature of 22±4° C., relative humidity of 50±20%, and illuminance of 150 to 300 Lux of lighting on for 12 hours (lighting: 08:00 to 20:00). A radiation solid feed (FeedLab GMO Free Rodent Diet GF2005) for rodents was free-taken using a feeder and water sterilized by an ultraviolet-ray flowing water sterilizer and high-pressure vapor after reverse osmosis was free-taken using a polysulfonate-made drinking water bottle (300 ml).
In order to induce ulcerative colitis, 2% DSS was added in drinking water of mice and continuously supplied for first 7 days of every test cycle (3 weeks). The test substances were orally administered 2 times a day, 5 days a week, and for a total of 6 weeks at the same time of second DSS induction (FIG. 14). The test substance dose was administered in a liquid amount of 20 mL per kg by body weight converted for each individual based on the body weight. The administration was orally performed by putting a test substance in a syringe and injecting the test substance by connecting a feeding needle for rats.
In order to evaluate a treatment effect of test substances on ulcerative colitis, after the end of the test, the animal was anesthetized, opened, and bled and then a histopathological test was performed for each individual. Histopathological findings were subdivided and scored into severity changes of inflammation, crypt cell damage, ulcer, edema, and fibrosis as shown in Table 8 below. In addition, the four histopathological severity scores excluding fibrosis were summed to compare a positive control (G2) and test substance-administered groups (G3, G4, and […]).
Statistical analysis was performed using Graphpad Prism version 8.01, and a minimum unit of significance was set to p<0.05. Since all measured histopathological indexes were nonparametric data, the indexes were represented by a median, 25% to 75% values (in the box), and minimum-maximum values (both ends) in the graph (FIGS. 15 to 20). […]

[5] = test system: interleukin 6 (IL-6); assay: immunohistochemical IL-6 staining of large intestine, DSS ulcerative colitis mouse model; assay type: in vivo, C57BL/6 mice; conditions: DSS 2% mice, same dosing
Method: Animal tests were performed to confirm anti-inflammatory, anti-crypt cell damage, anti-ulcer, anti-edema, and anti-fibrosis effects of a vactosertib/bentonite complex using a mouse model of ulcerative colitis as one of inflammatory bowel diseases. C57BL/6 mice were selected as test animals, and in order to induce ulcerative colitis, a cycle in which an inflammation inducing substance, DSS was added in drinking water and supplied for 7 days, and then normal drinking water was supplied for 14 days was repeated. Such an inflammation inducing cycle was repeated 3 times to induce chronic inflammation, ulcer and fibrous conditions in the large intestine. […]
In order to observe an immunohistochemical change of a large intestine tissue, a tissue fixed to a 10% neutral buffer formalin solution was sliced, attached to a coating slide, and deparaffinized, and then stained, and IHC of reacting with antibodies IL-6 (Interleukin-6), α-SMA (α-smooth muscle actin), and TGF-β (transforming growth factor beta) on each slide was requested to an external institute (Notus) and the test was performed. In an individual-specific tissue slide, three constant zones were specified and imaged 100 times, a stained portion to the total area was measured, and a mean value was calculated (Zen 2.3 blue edition, Carl Zeiss, Germany). […]

[6] = DSS 2% mice, oral twice a day, 5 days a week, 6 weeks, bentonite 106.8, vactosertib 20.0, complex 126.8 mg/kg, 3 point scale

solubility ([1]; 25 °C, water, thermodynamic from solid, saturated aqueous solution at 25±3° C., pH 7.2): < 20 µg/mL | pH of a saturated aqueous solution ([1]; 25±3° C.): 7.2 | solubility ([1]; aqueous solution, aqueous buffer, at pH 2.81): 25000 µg/mL (≈ 62700 µM) | solubility ([1]; aqueous solution, aqueous buffer, at pH 3): ~1000 µg/mL (≈ 2500 µM) | solubility ([1]; aqueous solution, aqueous buffer, in pH 4.9 or higher): ≤ 20 µg/mL | partition coefficient (octanol/water) Log Do/w [2]: 3.31 | Adsorption rate ([3]; vactosertib 0.01 mg/mL, bentonite 0.5 mg/mL, pH 1): 99.4 ± 0.1% | Adsorption rate ([3]; vactosertib 0.025 mg/mL, bentonite 0.5 mg/mL, pH 1): 99.8 ± 0.0% | Adsorption rate ([3]; vactosertib 0.05 mg/mL, bentonite 0.5 mg/mL, pH 1): 99.8 ± 0.1% | Adsorption rate ([3]; vactosertib 0.1 mg/mL, bentonite 0.5 mg/mL, pH 1): 80.7 ± 1.0% | Adsorption rate ([3]; vactosertib 0.1 mg/mL, bentonite 0.5 mg/mL, pH 2): 79.3 ± 1.0% | Adsorption rate ([3]; vactosertib 0.1 mg/mL, bentonite 0.5 mg/mL, pH 3): 79.0 ± 0.8% | Adsorption rate ([3]; vactosertib 0.15 mg/mL, bentonite 0.5 mg/mL, pH 1): 57.1 ± 1.5% | Adsorption rate ([3]; vactosertib 0.2 mg/mL, bentonite 0.5 mg/mL, pH 1): 43.8 ± 0.5% | Adsorption rate ([3]; vactosertib 0.3 mg/mL, bentonite 0.5 mg/mL, pH 1): 31.2 ± 1.2% | Adsorption rate ([3]; vactosertib 0.4 mg/mL, bentonite 0.5 mg/mL, pH 1): 23.0 ± 0.8% | Adsorption rate ([3]; vactosertib 0.5 mg/mL, bentonite 0.5 mg/mL, pH 1): 19.0 ± 0.9% | Adsorption rate ([3]; vactosertib 1 mg/mL, bentonite 5 mg/mL, pH 1): 90.4 ± 0.2%
Structure (SMILES): Cc1cccc(-c2[nH]c(CNc3ccccc3F)nc2-c2ccc3ncnn3c2)n1 [Vactosertib, N-((4-([1,2,4]triazolo[1,5-a]pyridine-6-yl)-5-(6-methylpyridin-2-yl)-1H-imidazol-2-yl)methyl)-2-fluoroaniline]
Edema score (mean) ([4]; DSS 2% mice, oral twice a day, 5 days a week, 6 weeks, bentonite 106.8, vactosertib 20.0, complex 126.8 mg/kg, 1 point scale): 0.3 | Fibrosis score (mean) [4, 6]: 1.5 | Ulcer score (mean) [4, 6]: 0.9 | Crypt cell damage score (mean) ([4]; DSS 2% mice, oral twice a day, 5 days a week, 6 weeks, bentonite 106.8, vactosertib 20.0, complex 126.8 mg/kg, 4 point scale): 2 | Inflammation score (mean) ([4]; DSS 2% mice, oral twice a day, 5 days a week, 6 weeks, bentonite 106.8, vactosertib 20.0, complex 126.8 mg/kg, 5 point scale): 3.6 | median of inflammation index compared with the positive control group (G2) ([4]; FIG. 15, Dunn's test): slightly low in a median of an inflammation index | median of crypt cell damage index compared with the positive control group (G2) ([4]; FIG. 16, Dunn's test): low in a median of a crypt cell damage index, but had no statistical significance | median of ulcer index compared with the positive control group (G2) ([4]; FIG. 17, Dunn's test): low in a median of an ulcer index, but had no statistical significance | median of fibrosis index compared with the positive control group (G2) ([4]; FIG. 19, Dunn's test): slightly low in a median of a fibrosis index | median of summed severity scores (inflammation, crypt cell damage, ulcer, edema) compared with the positive control group (G2) ([4]; FIG. 20, Dunn's test): low in a median of an ulcer index, but had no statistical significance | Histopathologic total score (mean) ([4]; sum of inflammation, crypt cell damage, ulcer, edema (fibrosis excluded), same dosing): 6.8 | reduction of IL-6 staining area compared with G2 group [5]: 23.0% | IL-6 (Area %) ([5]; mean and standard error): 9.7 ± 2.9 Area %
